Test system: 435261-313-R-J1-PDC tumor spheroid viability
Assay: Anticancer human tumor 435261-313-R-J1-PDC patient-derived colon adenocarcinoma cell line growth inhibition [PI3K]
Conditions: spheroids with HUVEC and MSC; for IC50: curve of first compound; for viability, T/C: stronger effect = lower value
In short: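 We assembled tumor spheroids that included a stromal compartment of HUVEC and MSCs, then exposed them to targeted agents alone and together with PI3K pathway inhibitors. Concentration series descended by half-log from clinically achievable Cmax levels. Viability served as the endpoint.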

[1] = second compound 0.00316 µM, first compound 0.0316 µM
[2] = second compound 0.00316 µM, first compound 0.1 µM
[3] = second compound 0.00316 µM, first compound 0.316 µM
[4] = second compound 0.00316 µM, first compound 1 µM
[5] = second compound 0.00316 µM, first compound 3.16 µM
[6] = second compound 0.00316 µM, first compound 10 µM
[7] = second compound 0.01 µM, first compound 0.0316 µM
[8] = second compound 0.01 µM, first compound 0.1 µM
[9] = second compound 0.01 µM, first compound 0.316 µM
[10] = second compound 0.01 µM, first compound 1 µM
[11] = second compound 0.01 µM, first compound 3.16 µM
[12] = second compound 0.01 µM, first compound 10 µM
[13] = second compound 0.0316 µM, first compound 0.0316 µM
[14] = second compound 0.0316 µM, first compound 0.1 µM
[15] = second compound 0.0316 µM, first compound 0.316 µM
[16] = second compound 0.0316 µM, first compound 1 µM
[17] = second compound 0.0316 µM, first compound 3.16 µM
[18] = second compound 0.0316 µM, first compound 10 µM
[19] = second compound 0.1 µM, first compound 0.0316 µM
[20] = second compound 0.1 µM, first compound 0.1 µM
[21] = second compound 0.1 µM, first compound 0.316 µM
[22] = second compound 0.1 µM, first compound 1 µM
[23] = second compound 0.1 µM, first compound 3.16 µM
[24] = second compound 0.1 µM, first compound 10 µM
[25] = second compound 0.316 µM, first compound 0.0316 µM
[26] = second compound 0.316 µM, first compound 0.1 µM
[27] = second compound 0.316 µM, first compound 0.316 µM
[28] = second compound 0.316 µM, first compound 1 µM
[29] = second compound 0.316 µM, first compound 3.16 µM
[30] = second compound 0.316 µM, first compound 10 µM
[31] = second compound 1 µM, first compound 0.0316 µM
[32] = second compound 1 µM, first compound 0.1 µM
[33] = second compound 1 µM, first compound 0.316 µM
[34] = second compound 1 µM, first compound 1 µM
[35] = second compound 1 µM, first compound 3.16 µM
[36] = second compound 1 µM, first compound 10 µM

## CC(C)NCC(C(=O)N1CCN(c2ncnc3c2C(C)CC3O)CC1)c1ccc(Cl)cc1 (stereo unspecified) + COc1c(OCCCN2CCOCC2)ccc2c3n(c(=NC(=O)c4cnc(N)nc4)nc12)CCN3
Second compound 0.00316 µM
  IC50: 765 nM
Second compound 0.01 µM
  IC50: 664 nM
Second compound 0.0316 µM
  IC50: < 31.6 nM
Second compound 0.1 µM
  IC50: < 31.6 nM
Second compound 0.316 µM
  IC50: < 31.6 nM
Second compound 1 µM
  IC50: < 31.6 nM
[1]
  viability, T/C: 77.5%
[2]
  viability, T/C: 57.4%
[3]
  viability, T/C: 67.4%
[4]
  viability, T/C: 45%
[5]
  viability, T/C: 25.9%
[6]
  viability, T/C: 18.1%
[7]
  viability, T/C: 35.5%
[8]
  viability, T/C: 72.5%
[9]
  viability, T/C: 53.8%
[10]
  viability, T/C: 45.8%
[11]
  viability, T/C: 37.2%
[12]
  viability, T/C: 22.3%
[13]
  viability, T/C: 29%
[14]
  viability, T/C: 24.9%
[15]
  viability, T/C: 40.3%
[16]
  viability, T/C: 17.9%
[17]
  viability, T/C: 17.2%
[18]
  viability, T/C: 13.7%
[19]
  viability, T/C: 16.9%
[20]
  viability, T/C: 13.9%
[21]
  viability, T/C: 18.2%
[22]
  viability, T/C: 14.3%
[23]
  viability, T/C: 14.1%
[24]
  viability, T/C: 8.48%
[25]
  viability, T/C: 8.02%
[26]
  viability, T/C: 10%
[27]
  viability, T/C: 8.48%
[28]
  viability, T/C: 7.53%
[29]
  viability, T/C: 6.85%
[30]
  viability, T/C: 3.75%
[31]
  viability, T/C: 3.46%
[32]
  viability, T/C: 4.26%
[33]
  viability, T/C: 3.88%
[34]
  viability, T/C: 3.78%
[35]
  viability, T/C: 3.18%
[36]
  viability, T/C: 1.67%

## CCN1CCN(Cc2ccc(Nc3ncc(F)c(-c4cc(F)c5nc(C)n(C(C)C)c5c4)n3)nc2)CC1 + COc1c(OCCCN2CCOCC2)ccc2c3n(c(=NC(=O)c4cnc(N)nc4)nc12)CCN3
Second compound 0.00316 µM
  IC50: 52.9 nM
Second compound 0.01 µM
  IC50: < 3.16 nM
Second compound 0.0316 µM
  IC50: < 3.16 nM
Second compound 0.1 µM
  IC50: < 3.16 nM
Second compound 0.316 µM
  IC50: < 3.16 nM
Second compound 1 µM
  IC50: < 3.16 nM
Second compound 0.00316 µM, first compound 0.00316 µM
  viability, T/C: 49.3%
Second compound 0.00316 µM, first compound 0.01 µM
  viability, T/C: 57.2%
[1]
  viability, T/C: 65.2%
[2]
  viability, T/C: 35.8%
[3]
  viability, T/C: 40.6%
[4]
  viability, T/C: 46.6%
Second compound 0.01 µM, first compound 0.00316 µM
  viability, T/C: 42.3%
Second compound 0.01 µM, first compound 0.01 µM
  viability, T/C: 39.8%
[7]
  viability, T/C: 35.4%
[8]
  viability, T/C: 33%
[9]
  viability, T/C: 32.7%
[10]
  viability, T/C: 42.5%
Second compound 0.0316 µM, first compound 0.00316 µM
  viability, T/C: 28.9%
Second compound 0.0316 µM, first compound 0.01 µM
  viability, T/C: 22.6%
[13]
  viability, T/C: 24.1%
[14]
  viability, T/C: 23.3%
[15]
  viability, T/C: 26.6%
[16]
  viability, T/C: 25.2%
Second compound 0.1 µM, first compound 0.00316 µM
  viability, T/C: 15.2%
Second compound 0.1 µM, first compound 0.01 µM
  viability, T/C: 15.4%
[19]
  viability, T/C: 18.1%
[20]
  viability, T/C: 13.7%
[21]
  viability, T/C: 15.6%
[22]
  viability, T/C: 16.7%
Second compound 0.316 µM, first compound 0.00316 µM
  viability, T/C: 8.47%
Second compound 0.316 µM, first compound 0.01 µM
  viability, T/C: 8.29%
[25]
  viability, T/C: 8.24%
[26]
  viability, T/C: 6.93%
[27]
  viability, T/C: 8.43%
[28]
  viability, T/C: 9.13%
Second compound 1 µM, first compound 0.00316 µM
  viability, T/C: 4.09%
Second compound 1 µM, first compound 0.01 µM
  viability, T/C: 3.66%
[31]
  viability, T/C: 3.83%
[32]
  viability, T/C: 2.75%
[33]
  viability, T/C: 3.7%
[34]
  viability, T/C: 3.49%

## Cn1nccc1Nc1nccc(-c2ccn(C(CO)c3ccc(Cl)c(F)c3)c(=O)c2)n1 (stereo unspecified) + COc1c(OCCCN2CCOCC2)ccc2c3n(c(=NC(=O)c4cnc(N)nc4)nc12)CCN3
Second compound 0.00316 µM
  IC50: 238 nM
Second compound 0.01 µM
  IC50: 97.3 nM
Second compound 0.0316 µM
  IC50: < 31.6 nM
Second compound 0.1 µM
  IC50: < 31.6 nM
Second compound 0.316 µM
  IC50: < 31.6 nM
Second compound 1 µM
  IC50: < 31.6 nM
[1]
  viability, T/C: 70.2%
[2]
  viability, T/C: 56.1%
[3]
  viability, T/C: 47.6%
[4]
  viability, T/C: 32.4%
[5]
  viability, T/C: 34.9%
[6]
  viability, T/C: 13.1%
[7]
  viability, T/C: 64.3%
[8]
  viability, T/C: 48.8%
[9]
  viability, T/C: 38.8%
[10]
  viability, T/C: 26.3%
[11]
  viability, T/C: 22.4%
[12]
  viability, T/C: 14.3%
[13]
  viability, T/C: 31.7%
[14]
  viability, T/C: 28.7%
[15]
  viability, T/C: 17.7%
[16]
  viability, T/C: 17.9%
[17]
  viability, T/C: 17.3%
[18]
  viability, T/C: 9.88%
[19]
  viability, T/C: 17.7%
[20]
  viability, T/C: 13.6%
[21]
  viability, T/C: 10.8%
[22]
  viability, T/C: 8.53%
[23]
  viability, T/C: 5.16%
[24]
  viability, T/C: 1.19%
[25]
  viability, T/C: 9.14%
[26]
  viability, T/C: 5.37%
[27]
  viability, T/C: 3.27%
[28]
  viability, T/C: 2.55%
[29]
  viability, T/C: 0.85%
[30]
  viability, T/C: 0.46%
[31]
  viability, T/C: 4.18%
[32]
  viability, T/C: 2.97%
[33]
  viability, T/C: 1.36%
[34]
  viability, T/C: 1.15%
[35]
  viability, T/C: 0.78%
[36]
  viability, T/C: 0.48%

From PubChem BioAssay AID1963976 (Molecular Pharmacology Branch, DTP, NCI, 2024)
